Assay results taken from US11098058B2, “Bicyclic ketone compounds and methods of use thereof” (Genentech, Inc., priority 2017, dated 2021).
Read-outs that look alike come from different tables or passages of the source.

Target: human RIP1 kinase domain (2-375) (Homo sapiens (Human), UniProt Q13546)
Details: 50 nM enzyme, 50 μM ATP, 2 hours incubation
[1] = RIP1 kinase inhibition, tight-binding apparent Ki
[2] = tight-binding apparent inhibition constant (Ki app, Morrison equation)

human RIP1 kinase domain (2-375), sequence (Q13546 2-375): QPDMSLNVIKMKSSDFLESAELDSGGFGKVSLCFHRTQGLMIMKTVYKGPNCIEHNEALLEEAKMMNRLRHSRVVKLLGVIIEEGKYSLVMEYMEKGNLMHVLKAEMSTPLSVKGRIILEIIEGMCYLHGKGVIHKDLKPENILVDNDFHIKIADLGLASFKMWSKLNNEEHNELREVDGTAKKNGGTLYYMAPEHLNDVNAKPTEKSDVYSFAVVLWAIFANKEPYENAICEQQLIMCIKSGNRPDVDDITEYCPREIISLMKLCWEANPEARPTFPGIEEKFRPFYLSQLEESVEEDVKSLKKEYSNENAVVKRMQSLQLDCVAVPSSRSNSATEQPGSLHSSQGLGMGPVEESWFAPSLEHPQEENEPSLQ
Method: RIP1 Kinase Inhibition Assays (Biochemical Assay)
The ability of the receptor interacting protein kinase (RIPK1) to catalyze the hydrolysis of adenosine-5′-triphosphate (ATP) is monitored using the Transcreener ADP (adenosine-5′-diphosphate) assay (BellBrook Labs). Purified human RIP1 kinase domain (2-375) (50 nM) derived from a baculovirus-infected insect cell expression system is incubated with test compounds for 2 hours in 50 mM Hepes buffer (pH 7.5) containing 30 mM MgCl2, 1 mM dithiothreitol, 50 μM ATP, 0.002% Brij-35, and 0.5% dimethyl sulfoxide (DMSO). […] The tracer bound to the antibody is displaced by the ADP generated during the RIP1K reaction, which causes a decrease in fluorescence polarization that is measured by laser excitation at 633 nm with a FP microplate reader M1000. Fractional activity was plotted against test article concentration. Using Genedata Screener software (Genedata; Basel, Switzerland), the data were fit to the tight-binding apparent inhibition constant (Ki^app) Morrison equation [Williams, J. W. and Morrison, J. F. (1979) The kinetics of reversible tight-binding inhibition. […] The following equation was used to calculate fractional activity and Ki^app:
[formula] where [E]T and [I]T are the total concentrations of active enzyme and test article, respectively.

Compound: O=C(c1nc2n(n1)[C@H](c1ccccc1)C[C@@H]2F)[C@H]1C[C@@H]2CC[C@H]1O2 (single isomer, unassigned) [Example 141]
- Ki [1]: 0.009 µM

Compound: O=C(c1cc2n(n1)[C@H](c1ccccc1)C[C@@H]2F)C1CC1 (single isomer, unassigned) [Example 159]
- Ki [1]: 0.005 µM

Compound: O=C(c1nc2n(n1)[C@H](c1ccccc1)CCC2)C1CC1 (single isomer, unassigned) [Example 146]
- Ki [1]: 0.07 µM

Compound: CCC(=O)c1cn2c(n1)C(c1ccccc1)CC2 (stereo not shown) [Example 17, 1-(7-phenyl-6,7-dihydro-5H-pyrrolo[1,2-a]imidazol-2-yl)propan-1-one]
- Ki [2]: 0.94 µM

Compound: O=C(c1nc2n(n1)[C@H](c1ncccc1F)C[C@H]2F)C1CC1 (single isomer, unassigned) [Example 151]
- Ki [1]: 0.23 µM

Compound: Cn1cc(Cl)c([C@@H]2C[C@@H](F)c3nc(C(=O)C4CC4)nn32)n1 [Example 155, ((5S,7R)-5-(4-chloro-1-methyl-1H-pyrazol-3-yl)-7-fluoro-6,7-dihydro-5H-pyrrolo[1,2-b][1,2,4]triazol-2-yl)(cyclopropyl)methanone]
- Ki [1]: 0.97 µM

Compound: COc1cccc([C@@H]2C[C@H](F)c3nc(C(=O)C4CC4)nn32)c1 (single isomer, unassigned) [Example 156]
- Ki [1]: 0.02 µM

Compound: N#CCC1(C(=O)c2nc3n(n2)[C@H](c2ccccc2)C[C@@H]3F)CC1 (single isomer, unassigned) [Example 83]
- Ki [1]: 0.0037 µM

Compound: O=C(c1nc2n(n1)[C@H](c1ccccc1Cl)CC2)C1CC1 (single isomer, unassigned) [Example 77]
- Ki [1]: 0.014 µM

Compound: O=C(c1nc2n(n1)[C@H](c1cccc(F)c1F)C[C@@H]2F)C1CC1 (single isomer, unassigned) [Example 106]
- Ki [1]: 0.0031 µM

Compound: Cn1cc(Cl)c([C@@H]2C[C@H](F)c3nc(C(=O)C4CC4)nn32)n1 [Example 154, ((5S,7S)-5-(4-chloro-1-methyl-1H-pyrazol-3-yl)-7-fluoro-6,7-dihydro-5H-pyrrolo[1,2-b][1,2,4]triazol-2-yl)(cyclopropyl)methanone]
- Ki [1]: 0.032 µM

Compound: O=C(c1nc2n(n1)[C@H](c1ccccc1F)C[C@@H]2F)C1CC1 (single isomer, unassigned) [Example 62]
- Ki [1]: 0.004 µM

Compound: O=C(c1nc2n(n1)[C@H](c1ccccc1Cl)C[C@@H]2F)C1CC1 [Example 100, cyclopropyl-[(5S,7S)-5-(2-chlorophenyl)-7-fluoro-6,7-dihydro-5H-pyrrolo[1,2-b][1,2,4]triazol-2-yl]methanone]
- Ki [1]: 0.0035 µM

Compound: O=C(c1nc2n(n1)[C@H](c1c(F)ccc(F)c1F)C[C@@H]2F)C1CC1 (single isomer, unassigned) [Example 102]
- Ki [1]: 0.0036 µM

Compound: CC1(C(=O)c2nc3n(n2)[C@H](c2ccccc2)C[C@@H]3F)COC1 (single isomer, unassigned) [Example 54]
- Ki [2]: 0.028 µM

Compound: O=C(c1nc2n(n1)[C@@H](c1ccccc1)C[C@H]2Cl)C1CC1 (single isomer, unassigned) [Example 115]
- Ki [1]: 0.79 µM

Compound: O=C(c1nc2n(n1)[C@H](c1cc(F)ccc1F)C[C@@H]2F)C1CC1 [Example 101, cyclopropyl-[(5S,7S)-5-(2,5-difluorophenyl)-7-fluoro-6,7-dihydro-5H-pyrrolo[1,2-b][1,2,4]triazol-2-yl]methanone]
- Ki [1]: 0.0036 µM

Compound: N#Cc1ccccc1[C@@H]1C[C@H](F)c2nc(C(=O)C3CC3)nn21 (single isomer, unassigned) [Example 124]
- Ki [1]: 0.061 µM

Compound: O=C(c1nc2n(n1)[C@H](c1ccccc1)C[C@@H]2F)C1CC1c1ccccn1 (stereo partly drawn) [Example 74, [2-(2-pyridyl)cyclopropyl]-[(5S,7S)-7-fluoro-5-phenyl-6,7-dihydro-5H-pyrrolo[1,2-b][1,2,4]triazol-2-yl]methanone]
- Ki [1]: 0.018 µM

Compound: O=C(c1nc2n(n1)[C@H](c1ccccc1)C[C@@H]2F)C1CC(F)(F)C1 (single isomer, unassigned) [Example 73]
- Ki [1]: 0.0034 µM

Compound: CCC(=O)c1cc2n(n1)CC[C@H]2c1ccccc1 (single isomer, unassigned) [Example 23]
- Ki [2]: 2.18 µM

Compound: O=C(c1nc2n(n1)[C@H](c1ccccc1)C[C@H]2O)C1CC1 (single isomer, unassigned) [Example 88]
- Ki [1]: 0.18 µM

Compound: O=C(c1nc2n(n1)[C@H](c1ccccc1)C[C@@H]2F)C1C2CC(F)(F)CC21 (single isomer, unassigned) [Example 80]
- Ki [1]: 0.033 µM

Compound: O=C(c1nc2n(n1)[C@H](c1c(F)cccc1F)C[C@@H]2F)C1CC1 (single isomer, unassigned) [Example 94]
- Ki [1]: 0.0031 µM

Compound: O=C(c1nc2n(n1)[C@H](c1ccccc1)C[C@@H]2F)C1(CO)CC1 (single isomer, unassigned) [Example 72]
- Ki [1]: 0.0049 µM

Compound: Cc1oncc1C1CC(F)c2nc(C(=O)C3CC3)nn21 (stereo not shown) [Example 153, cyclopropyl(7-fluoro-5-(5-methylisoxazol-4-yl)-6,7-dihydro-5H-pyrrolo[1,2-b][1,2,4]triazol-2-yl)methanone]
- Ki [1]: 0.38 µM

Compound: O=C(c1nc2n(n1)[C@H](c1ccccc1)C[C@@H]2F)[C@@H]1C[C@H]2CC[C@@H]1O2 (single isomer, unassigned) [Example 140]
- Ki [1]: 0.15 µM

Compound: O=C(c1cc2n(n1)[C@H](c1ccccc1)C[C@@H]2F)C1CC1 (single isomer, unassigned) [Example 108]
- Ki [1]: 0.0037 µM
